From US10053472B2, “Silicon-based fungicides and process for producing the same” (COUNCIL OF SCIENTIFIC & INDUSTRIAL RESEARCH, priority 2014, dated 2018)
Converted amounts (≈) assume the structure as drawn.

What was measured:
[1] = test system: C. albicans ATCC 24433; test: Spectrophotometric sterol analysis (effect on sterol composition); type: cell-based, Candida albicans; conditions: 0, 0.125, 0.25, 0.50, 1 and 2 μg/ml of compound, 16 h, 28° C.; heptane sterol extract scanned 220-300 nm (FIG. 1)
Procedure: FIG. 1: Spectrophotometric sterol analysis of Candida albicans ATCC 24433 exposed with different concentrations of compounds of the present invention and reference compounds.
Overnight grown culture of C. albicans ATCC 24433 was inoculated (10^6 cells/ml) in 50 ml 1% YPG broth containing 0, 0.125, 0.25, 0.50, 1, and 2 μg/ml of compounds. The flasks were incubated for 16 h with shaking at 28° C. The stationary-phase cells were harvested by centrifugation at 8000 rpm for 10 min and washed once with sterile distilled water. The net wet weight of the cell pellet was determined. To the 100 mg cell pellet, 3 ml of 25% alcoholic potassium hydroxide solution (25 g of KOH and 35 ml of sterile distilled water, brought to 100 ml with 100% ethanol), was added to each pellet and vortex mixed for 1 min. Cell suspensions were transferred to sterile borosilicate glass screw-cap tubes and were incubated in an 85° C. water bath for 1 h. Following incubation, tubes were allowed to cool to room temperature. Sterols were then extracted by addition of a mixture of 1 ml of sterile distilled water and 3 ml of n-heptane followed by vigorous vortex mixing for 3 min. The heptane layer was transferred to a clean borosilicate glass screw-cap tube and stored at −20° C. for as long as 24 h. Prior to analysis, a 20 μl aliquot of sterol extract was diluted fivefold in 100% ethanol and scanned spectrophotometrically between 220 and 300 nm on Spectrophotometer.

[2] = test system: tested plant and human pathogens; test: Overall antifungal activity, summary of susceptibility testing; type: cell-based; conditions: summary statement on Tables 1 and 2
Procedure: (§1) In vitro antifungal assays were performed by broth microdilution method according to the Clinical and Laboratory Standards Institute (CLSI, formerly NCCL) methods M27-A3 and M-38-A2. The activity was checked against plant pathogenic fungi Fusarium oxysporum CMI 113138, Aspergillus flavus ATCC 11499, Claviceps purpurea CMI 44613, Alternaria solani ATCC 11785, Ustilago maydis PRL 1549 and yeast Dekkera bruxellensis ATCC 36234. Briefly each compound stock was prepared in DMSO at concentration of 12800 μg/ml. For assay compound stocks were serially diluted two fold in microtiter plate and 4 μl of this was used for assay to get a final concentration in the range of 256-2 μg/ml. Spores of the filamentous fungi (˜2×10^4 spores/ml) and yeast cells freshly grown in YPG broth in logarithmic phase (˜2×10^3 cfu/ml) were suspended in the RPMI 1640 medium and 196 μl from these were inoculated in the wells of the plate. The microtitre plate was incubated for 48-72 h. Growth was checked by visual observation and measuring absorbance at 600 nm using microtitre plate reader.
(§2) Antifungal activity of the compounds was also checked against human pathogens Candida albicans ATCC 24433, C. albicans ATCC 10231, Candida glabrata NCYC 388, Candida tropicalis ATCC 750, Cryptococcus neoformans ATCC 34554, Aspergillus niger ATCC 10578, by following procedure described below.

[3] = test system: Aspergillus flavus ATCC 11499; test: Broth microdilution antifungal susceptibility (MIC), plant pathogenic fungi; type: cell-based; conditions: ATCC11499, MIC = concentration exhibiting >90% inhibition of growth vs control, RPMI 1640, 48-72 h, read-out: Minimum Inhibitory Concentration, Aspergillus flavus ATCC 11499
Procedure: as §1

[4] = test system: Alternaria solani ATCC 11785; test: as above; type: cell-based; conditions: ATCC11785, MIC = concentration exhibiting >90% inhibition of growth vs control, RPMI 1640, 48-72 h, read-out: Minimum Inhibitory Concentration, Alternaria solani ATCC 11785
Procedure: as §1

[5] = test system: Claviceps purpurea CMI 44613; test: as above; type: cell-based; conditions: CMI44613, MIC = concentration exhibiting >90% inhibition of growth vs control, RPMI 1640, 48-72 h, read-out: Minimum Inhibitory Concentration, Claviceps purpurea CMI 44613
Procedure: as §1

[6] = test system: Fusarium oxysporum CMI 113138; test: as above; type: cell-based; conditions: CMI113138, MIC = concentration exhibiting >90% inhibition of growth vs control, RPMI 1640, 48-72 h, read-out: Minimum Inhibitory Concentration, Fusarium oxysporum CMI 113138
Procedure: as §1

[7] = test system: Ustilago maydis PRL 1549; test: as above; type: cell-based; conditions: Mycosarcoma maydis, PRL1549; MIC = concentration exhibiting >90% inhibition of growth vs control; RPMI 1640, 48-72 h; read-out: Minimum Inhibitory Concentration, Ustilago maydis PRL 1549
Procedure: as §1

[8] = test system: Candida albicans ATCC 24433; test: Antifungal susceptibility (MIC), human fungal pathogens; type: cell-based; conditions: ATCC24433, MIC = concentration exhibiting >90% inhibition of growth vs control, read-out: Minimum Inhibitory Concentration, C.albicans ATCC 24433
Procedure: as §1, §2

[9] = test system: Aspergillus niger ATCC 10578; test: as above; type: cell-based; conditions: ATCC10578, MIC = concentration exhibiting >90% inhibition of growth vs control, read-out: Minimum Inhibitory Concentration, A. niger ATCC 10578
Procedure: as §1, §2

[10] = test system: Candida glabrata NCYC 388; test: as above; type: cell-based; conditions: Nakaseomyces glabratus, NCYC388; MIC = concentration exhibiting >90% inhibition of growth vs control; read-out: Minimum Inhibitory Concentration, C.glabrata NCYC 388
Procedure: as §1, §2

[11] = test system: Candida tropicalis ATCC 750; test: as above; type: cell-based; conditions: ATCC750, MIC = concentration exhibiting >90% inhibition of growth vs control, read-out: Minimum Inhibitory Concentration, C.tropicalis ATCC 750
Procedure: as §1, §2

[12] = test system: C. albicans ATCC 10231; test: as above; type: cell-based; conditions: Candida albicans, ATCC10231; MIC = concentration exhibiting >90% inhibition of growth vs control; read-out: Minimum Inhibitory Concentration, C.albicans ATCC 10231
Procedure: as §1, §2

[13] = test system: Cryptococcus neoformans ATCC 34554; test: as above; type: cell-based; conditions: ATCC34554, MIC = concentration exhibiting >90% inhibition of growth vs control, read-out: Minimum Inhibitory Concentration, C.neoformans ATCC 34554
Procedure: as §1, §2

[14] = test system: Dekkera bruxellensis ATCC 36234; test: Broth microdilution antifungal susceptibility (MIC), yeast; type: cell-based; conditions: Brettanomyces bruxellensis, ATCC36234; MIC = concentration exhibiting >90% inhibition of growth vs control; RPMI 1640, 48-72 h; read-out: Minimum Inhibitory Concentration, Dekkera bruxellensis ATCC 36234
Procedure: as §1

SMILES | Height of sterol absorbance peaks (ergosterol concentration) [1] | Antifungal activity against the tested plant and human pathogens (in words) [2] | MIC [3] [µg/mL] | MIC [4] [µg/mL] | MIC [5] [µg/mL] | MIC [6] [µg/mL] | MIC [7] [µg/mL] | MIC [8] [µg/mL] | MIC [9] [µg/mL] | MIC [10] [µg/mL] | MIC [11] [µg/mL] | MIC [12] [µg/mL] | MIC [13] [µg/mL] | MIC [14] [µg/mL]
CC(Cc1ccc(C(C)(C)C)cc1)CN1CC[Si](C)(C)CC1 (racemic) [NDS100414, (R,S)1-(3-(4-(tert-butyl)phenyl)-2-methylpropyl)-4,4-dimethyl-1,4-azasilinane] | dose-dependent decrease in the height of the absorbance peaks | potent antifungal activity | 128 (≈ 403 µM) | 32 (≈ 101 µM) | 4 (≈ 12.6 µM) | 64 (≈ 202 µM) | 32 (≈ 101 µM) | 4 (≈ 12.6 µM) | 0.5 (≈ 1.57 µM) | 4 (≈ 12.6 µM) | 64 (≈ 202 µM) | 0.5 (≈ 1.57 µM) | 2 (≈ 6.3 µM) | 16 (≈ 50.4 µM)
CC(Cc1ccc(C(C)(C)C)cc1)CN1CCCCC1 (centres unmarked) [Fenpropidin, reference compound] | dose-dependent decrease in the height of the absorbance peaks | potent antifungal activity | 256 (≈ 936 µM) | 128 (≈ 468 µM) | 32 (≈ 117 µM) | 256 (≈ 936 µM) | 128 (≈ 468 µM) | 0.5 (≈ 1.83 µM) | 0.5 (≈ 1.83 µM) | 0.25 (≈ 0.914 µM) | 8 (≈ 29.3 µM) | 1 (≈ 3.66 µM) | 0.5 (≈ 1.83 µM) | 128 (≈ 468 µM)
CC(Cc1ccc(C(C)(C)C)cc1)CN1C[C@@H](C)O[C@@H](C)C1 (some centres unmarked) [Fenpropimorph, reference compound] | dose-dependent decrease in the height of the absorbance peaks | potent antifungal activity | > 256 | > 256 | 32 (≈ 105 µM) | > 256 | > 256 | 0.125 (≈ 0.412 µM) | 1 (≈ 3.3 µM) | 0.125 (≈ 0.412 µM) | 4 (≈ 13.2 µM) | 0.25 (≈ 0.824 µM) | 0.125 (≈ 0.412 µM) | –
CC(Cc1ccc(C(C)(C)C)cc1)C(=O)N1CC[Si](C)(C)CC1 (centres unmarked) [NDS100415] | – | – | > 256 | > 256 | > 256 | > 256 | > 256 | > 256 | > 256 | > 256 | > 256 | > 256 | > 256 | > 256
CCC(C)(C)c1ccc(CC(C)CN2CC[Si](C)(C)CC2)cc1 (centres unmarked) [NDS100444] | dose-dependent decrease in the height of the absorbance peaks | potent antifungal activity | 64 (≈ 193 µM) | 32 (≈ 96.5 µM) | 16 (≈ 48.2 µM) | 64 (≈ 193 µM) | < 2 | 4 (≈ 12.1 µM) | 0.5 (≈ 1.51 µM) | 8 (≈ 24.1 µM) | 64 (≈ 193 µM) | 0.5 (≈ 1.51 µM) | 2 (≈ 6.03 µM) | 4 (≈ 12.1 µM)
CC(Cc1ccc([Si](C)(C)C)cc1)CN1CC[Si](C)(C)CC1 (centres unmarked) [NDS100579, 4,4-dimethyl-1-(2-methyl-3-(4-(trimethylsilyl)phenyl)propyl)-1,4-azasilinane] | – | – | > 256 | > 256 | 64 (≈ 192 µM) | > 256 | > 256 | 2 (≈ 5.99 µM) | 0.5 (≈ 1.5 µM) | 2 (≈ 5.99 µM) | 64 (≈ 192 µM) | 1 (≈ 3 µM) | 2 (≈ 5.99 µM) | –
CC(Cc1ccc(C(C)(C)C)cc1)C(=O)NC[Si](C)(C)c1ccccc1 (centres unmarked) [NDS100582] | – | – | > 256 | > 256 | > 256 | > 256 | > 256 | > 256 | > 256 | > 256 | > 256 | > 256 | > 256 | –
